Reference: article PMC3818835, “What Goes around Comes around-A Comparative Study of the Influence of Chemical Modifications on the Antimicrobial Properties of Small Cyclic Peptides” (Pharmaceuticals, 2013)
Converted amounts (≈) assume the structure as drawn. Numbered stars: 1 amine (or outer) side, 2 acyl side, 3 side chain; on linkers, the order of the positions; unused ones are H or OH. Square brackets hold non-standard residues; d marks the D form. Peptide text beside a SMILES is read from it. * marks the point of attachment. 6FAM = O=C1OC2(c3ccc(O)cc3Oc3cc(O)ccc32)c2cc(C(=O)*)ccc21; X1 = COc1ccc2c(CC(N[*:1])C(=O)[*:2])cc(=O)oc2c1; NBD = O=[N+]([O-])c1ccc(*)c2nonc12; X2 = O=c1cc(C*)c2cc(Br)c(O)cc2o1; Dap = NC[C@H](N)C(=O)O

Experiments:
[1] = test system: B. subtilis DSM 347; format: cell-based; details: DSM 347, 18 h
Description: (§1) The minimal inhibitory concentration (MIC) of the cyclic hexapeptides was tested against Gram-negative E. coli DH5α and Gram-positive B. subtilis DSM 347 using a microdilution technique in 96 well microtiter plates as described previously. Briefly, cells from an overnight culture were inoculated 1:100 in LB medium, grown to mid log phase (OD600 0.4 ± 0.1) and adjusted to 5 × 10^5 cells/well. Final peptide concentrations ranged from 0.05 µM to 100 µM (2-fold dilutions) and were tested in triplicates in at least three independent experiments. The MIC was determined after 18 h of incubation at 37 °C, 180 rpm being the lowest peptide concentration at which no visible bacterial growth can be detected photometrically (A600, Safire Microplate Reader, Tecan, Männedorf, Germany).

[2] = test system: E. coli DH5α; format: cell-based; details: 18 h
Description: as §1

[3] = test system: human erythrocytes; format: cell-based; details: pH 7.4
Description: The lytic effect of selected peptides upon human erythrocytes was determined as described before. Briefly, cells were washed thoroughly in Tris buffer (10 mM Tris, 150 mM NaCl, pH 7.4). Suspensions with 2.5 × 10^8 cells/mL were incubated with peptides at a final concentration of 100 µM for 30 min at 37 °C. After centrifugation, 0.6% NH4OH was added to an aliquot of the supernatant and hemoglobin absorption (A) was measured at 540 nm (Jasco V-550). Whole cell suspensions exposed to NH4OH were used as positive control (A100%) and preparations without peptide served as negative control (A0%), respectively. Data were collected in three independent experiments.

[4] = Hydrophobicity: retention time tR by reversed phase HPLC; format: physicochemical; details: chromatographic, RP-HPLC ProntoSil 300-5-C18-H (250 × 4.6 mm, 5 µm); peptide 1 mg/mL in phase A (0.1% TFA in water); B 0.1% TFA in 80% acetonitrile; linear gradient 5%–95% B over 40 min at 22 °C; used as a measure of hydrophobicity
Description: The retention time tR of the cyclic hexapeptides was determined by HPLC on a Jasco LC-2000Plus using a ProntoSil 300-5-C18-H column (250 × 4.6 mm, 5 µm) (Bischoff Chromatography). Peptide concentration was 1 mg/mL in mobile phase A (0.1% TFA in deionized water), mobile phase B consisted of 0.1% TFA in 80% acetonitrile in deionized water. For chromatographic analyses a linear gradient of 5%–95% phase B over 40 min at 22 °C was applied.
To investigate the influence of fluorescent label modification and amino acid substitution on the hydrophobicity/amphipathicity of the cyclic hexapeptide derivatives, we determined the retention time tR by reversed phase HPLC (Figure 2). The method monitors the retention of compounds by the hydrophobic HPLC stationary phase. Differences in tR reflect differences in the effective hydrophobicity of the molecule which is related to the intrinsic hydrophobicity of the individual residues and their ability to form hydrophobic domains for interaction with the HPLC matrix. At the same time, hydrophilic residues will locate at the opposite side of the molecule. Reduction in the size or positioning of cationic residues next to the hydrophobic molecular surface area would reduce amphipathicity. tR-measurements have successfully been applied to characterize amphipathic helices, β-structured peptides and different sets of our small cyclic R-, W-rich peptides.

[5] = test system: E. coli DH5α; experiment: Propidium iodide influx (membrane permeabilisation), flow cytometry; format: cell-based; details: FACS, PI 10 µg/mL, peptide at respective MIC, LB, 5 × 10^5 cells/mL, 0-90 min at 37 °C
Description: (§2) Membrane permeabilisation was determined by fluorescence activated cell sorting (FACS) on a FACSCalibur (Becton Dickinson) equipped with a 488 nm argon laser. Propidium iodide (PI, 10 µg/mL) and peptides at a final concentration corresponding to the respective MIC were dissolved in LB. Cells were grown to mid log phase (OD600 0.4 ± 0.1) and added to the solution just before the measurement at a concentration of 5 × 10^5 cells/mL. Cells were sorted on the basis of PI fluorescence which increases upon intercalation with DNA. This can only be observed in the case of disturbed membrane integrity as PI cannot translocate across intact lipid bilayers. Cell fluorescence was measured after incubation time points of 0, 5, 10, 15, 20, 30, 60 and 90 min at 37 °C, 180 rpm. A minimum of 20,000 cells was recorded for each preparation. CellQuest^TM Pro software (Becton Dickinson) was used for data acquisition and results were analyzed with FCS Express V3 (De Novo Software, Los Angeles, CA, USA).

[6] = test system: B. subtilis DSM 347; experiment: as above; format: cell-based; details: FACS, PI 10 µg/mL, peptide at respective MIC, LB, 5 × 10^5 cells/mL, 0-90 min at 37 °C
Description: as §2

[7] = test system: B. subtilis DSM 347; details: 5 µM, PI influx; cited from earlier work
Description: (§3) Figure 4 Bacterial membrane permeabilisation determined with flow cytometry using propidium iodide (PI). PI influx after incubation with cWFW, fluorescent-labeled and K-substituted cyclic hexapeptides was tested into B. subtilis DSM 347 (A,C) and E. coli DH5α (B,D) at respective MICs. […] Preparations without peptide were used as negative co ...

[8] = test system: E. coli DH5α; details: 5 µM, PI influx; cited from earlier work
Description: as §3

Compound | MIC B. subtilis DSM 347 [1] [µM] | MIC E. coli DH5α [2] [µM] | Hemolysis at 100 µM [3] [%] | Retention Time tR [4] [min] | PI influx / membrane permeabilisation, E. coli [5] | PI influx / membrane permeabilisation, B. subtilis [6] | Membrane permeabilising potential, Gram-positive cells (positive control) [7] | Membrane permeabilising potential, Gram-negative cells (positive control) [8]
NCCCC[C@@H]1NC(=O)[C@H](CCCCN)NC(=O)[C@H](Cc2c[nH]c3ccccc23)NC(=O)[C@H](Cc2ccccc2)NC(=O)[C@H](Cc2c[nH]c3ccccc23)NC(=O)[C@H](CCCCN)NC1=O [cKKK] (cyclo(KKKWFW)) | 50 (≈ 45.2 µg/mL) | 100 (≈ 90.4 µg/mL) | 8 | 17.70 | – | – | – | –
N=C(N)NCCC[C@@H]1NC(=O)[C@H](CCCCN)NC(=O)[C@H](CCCCN)NC(=O)[C@H](Cc2c[nH]c3ccccc23)NC(=O)[C@H](Cc2ccccc2)NC(=O)[C@H](Cc2c[nH]c3ccccc23)NC1=O [cKKR] (cyclo(KKRWFW)) | 25 (≈ 23.3 µg/mL) | 100 (≈ 93.2 µg/mL) | 3 | 17.86 | – | – | – | –
N=C(N)NCCC[C@@H]1NC(=O)[C@H](CCCCN)NC(=O)[C@H](Cc2c[nH]c3ccccc23)NC(=O)[C@H](Cc2ccccc2)NC(=O)[C@H](Cc2c[nH]c3ccccc23)NC(=O)[C@H](CCCCN)NC1=O [cKRK] (cyclo(KRKWFW)) | 25 (≈ 23.3 µg/mL) | 12 (≈ 11.2 µg/mL) | 2 | 17.27 | – | – | – | –
COc1ccc2c(CC3NC(=O)[C@H](Cc4c[nH]c5ccccc45)NC(=O)[C@H](CCCCN)NC(=O)[C@H](CCCNC(=N)N)NC(=O)[C@H](CCCCN)NC(=O)[C@H](Cc4c[nH]c5ccccc45)NC3=O)cc(=O)oc2c1 (stereo partly shown) [cR2[Cu]] (cyclo(KRKW[X1]W)) | 6 (≈ 6.18 µg/mL) | 50 (≈ 51.5 µg/mL) | 4 | 17.20 | pronounced membrane disruption | – | – | –
N=C(N)NCCC[C@@H]1NC(=O)[C@H](CCCCN)NC(=O)[C@H](Cc2c[nH]c3ccccc23)NC(=O)[C@H](CNc2ccc([N+](=O)[O-])c3nonc23)NC(=O)[C@H](Cc2c[nH]c3ccccc23)NC(=O)[C@H](CCCCN)NC1=O [cR2[NBD]] (cyclo(KRKW[Dap](NBD)W)) | 12 (≈ 12.4 µg/mL) | 50 (≈ 51.7 µg/mL) | 26 | 17.47 | No E. coli membrane permeabilisation could be detected | – | – | –
N=C(N)NCCC[C@@H]1NC(=O)[C@H](CCCCN)NC(=O)[C@H](Cc2c[nH]c3ccccc23)NC(=O)[C@H](CSCc2cc(=O)oc3cc(O)c(Br)cc23)NC(=O)[C@H](Cc2c[nH]c3ccccc23)NC(=O)[C@H](CCCCN)NC1=O [cR2[S-Cu]] (cyclo(KRKWC(X2)W)) | 25 (≈ 28.5 µg/mL) | 50 (≈ 57.1 µg/mL) | 5 | 17.49 | – | – | – | –
N=C(N)NCCC[C@@H]1NC(=O)[C@H](Cc2c[nH]c3ccccc23)NC(=O)[C@H](Cc2ccccc2)NC(=O)[C@H](Cc2c[nH]c3ccccc23)NC(=O)[C@H](CCCCN)NC(=O)[C@H](CCCCN)NC1=O [cRKK] (cyclo(RKKWFW)) | 25 (≈ 23.3 µg/mL) | 50 (≈ 46.6 µg/mL) | 56 | 18.38 | – | – | – | –
N=C(N)NCCC[C@@H]1NC(=O)[C@H](CCCCN)NC(=O)[C@H](CCCNC(=N)N)NC(=O)[C@H](Cc2c[nH]c3ccccc23)NC(=O)[C@H](Cc2ccccc2)NC(=O)[C@H](Cc2c[nH]c3ccccc23)NC1=O [cRKR] (cyclo(RKRWFW)) | 12 (≈ 11.5 µg/mL) | 50 (≈ 48 µg/mL) | 4 | 18.60 | – | – | – | –
N=C(N)NCCC[C@@H]1NC(=O)[C@H](CCCNC(=N)N)NC(=O)[C@H](CCCCNC(=O)c2ccc3c(c2)C2(OC3=O)c3ccc(O)cc3Oc3cc(O)ccc32)NC(=O)[C@H](Cc2c[nH]c3ccccc23)NC(=O)[C@H](Cc2c[nH]c3ccccc23)NC(=O)[C@H](CCCNC(=N)N)NC1=O [cW2[Fluos]] (cyclo(RRRWWK(6FAM))) | >100 | >100 | 9 | 19.28 | – | – | – | –
N=C(N)NCCC[C@@H]1NC(=O)[C@H](CCCCNC(=O)c2ccc3c(c2)C2(OC3=O)c3ccc(O)cc3Oc3cc(O)ccc32)NC(=O)[C@H](Cc2c[nH]c3ccccc23)NC(=O)[C@H](Cc2c[nH]c3ccccc23)NC(=O)[C@H](Cc2c[nH]c3ccccc23)NC(=O)[C@H](CCCNC(=N)N)NC1=O [cW3[Fluos]] (cyclo(RRWWWK(6FAM))) | >100 | >100 | 2 | 22.08 | – | – | – | –
COc1ccc2c(CC3NC(=O)[C@H](Cc4c[nH]c5ccccc45)NC(=O)[C@H](CCCNC(=N)N)NC(=O)[C@H](CCCNC(=N)N)NC(=O)[C@H](CCCNC(=N)N)NC(=O)[C@H](Cc4c[nH]c5ccccc45)NC3=O)cc(=O)oc2c1 (stereo partly shown) [cW[Cu]W] (cyclo(RRRW[X1]W)) | 6 (≈ 6.52 µg/mL) | 25 (≈ 27.2 µg/mL) | 23 | 18.40 | pronounced membrane disruption | slightly higher | – | –
N=C(N)NCCC[C@@H]1NC(=O)[C@H](CCCNC(=N)N)NC(=O)[C@H](Cc2c[nH]c3ccccc23)NC(=O)[C@H](CNc2ccc([N+](=O)[O-])c3nonc23)NC(=O)[C@H](Cc2c[nH]c3ccccc23)NC(=O)[C@H](CCCNC(=N)N)NC1=O [cW[NBD]W] (cyclo(RRRW[Dap](NBD)W)) | 25 (≈ 27.3 µg/mL) | 50 (≈ 54.5 µg/mL) | 76 | 17.90 | pronounced membrane disruption | – | – | –
N=C(N)NCCC[C@@H]1NC(=O)[C@H](CCCNC(=N)N)NC(=O)[C@H](Cc2c[nH]c3ccccc23)NC(=O)[C@H](CSCc2cc(=O)oc3cc(O)c(Br)cc23)NC(=O)[C@H](Cc2c[nH]c3ccccc23)NC(=O)[C@H](CCCNC(=N)N)NC1=O [cW[S-Cu]W] (cyclo(RRRWC(X2)W)) | 6 (≈ 7.18 µg/mL) | 25 (≈ 29.9 µg/mL) | 76 | 18.91 | pronounced membrane disruption | slightly higher | – | –
KLALKLALKALKAALKLA-NH2 [KLA-1, helical model peptide …-NH2, positive control in Gram-positive cells] | – | – | – | – | – | – | high membrane permeabilising potential | –
polymyxin B | – | – | – | – | – | – | – | high membrane permeabilising potential
